Legend:
Assay type in all cases: cell-based
HBL-100 cells = assay: Cell viability by neutral red assay, HBL-100; details: Homo sapiens, HBL-100, 144 h; ABT-263, 6 days, FIG. 16; read-out: IC50 (cell viability / killing)
Protocol: (§1) After 6 days treatment, cells were seeded into 24 well plates at a density of 1×10^4 cells/wells. After 24 h, cells were treated with reagents or vehicle for up to six days. At the end of the incubation period, medium was removed and cells were incubated with neutral red solution (40 μg/ml in phenol red and serum free DMEM) for 2 h at 37° C. After removal of the neutral red solution, wells were rinsed once with 1 ml 4% formal saline containing 0.5% CaCl2. Plates were inverted on paper towel to drain and 200 μl of elution fluid (1% acetic acid in 50% ethanol) was added. Following incubation at room temperature for 30 min with gentle shaking, absorbance at 550 nm was determined
In order to validate the previous results obtained in MDA-MB-231 cells, two other vitamin D resistant cell lines MCF-7/VD^R and HBL-100 cells, were investigated. First the effect of lenalidomide on these cells lines were investigated. To this end, cells were treated for up to 6 days with different concentrations of lenalidomide (0 μM up to 10 μM). Cell viability was measured by neutal red dye assay (FIG. 13).
(§2) More particularly, FIG. 13 illustrates the effects of lenalidomide treatment on MCF-7/VDR and HBL-100 viability. MCF-7/VDR and HBL-100 cells were treated for up to 6 days with different concentrations of lenalidomide (0 μM up to 10 μM). Cell viability was measured by neutral red dye assay. Results are mean of three independent experiments (each made in quadruplicate).
Cell viability was measured by neutral red dye assay (FIG. 14).
as §2, with “14” for “13”, “lenalidomide/1, 25-D3 co-treatment” for “lenalidomide treatment”, “(0.01” for “(0”, “1 μM) alone or in combination with different concentrations of 1, 25-D3 (0 for up to 1000 nM).” for “10 μM).”
(§3) To accomplish this, cells were treated for up to 6 days with different concentrations of a BCL-2 inhibitor, ABT-263 ([…]). Non-treated cells were used as a control. After 6 days of treatment, cell viability was measured by neutral red assay (FIG. 16). In the three cell lines, BCL-2 inhibition leads to cell death. The IC50 is almost equivalent in all cell lines (1 μM+/−0.2 μM).
(§4) More particularly, FIG. 16 illustrates the effects of BCL-2 inhibition on MCF-7VD^R and HBL-100 viability. MDA-MB-231, MCF-7/VD^R and HBL-100 cells were treated for up to 6 days with different concentrations of ABT-263 (0.2 up to 20 μM). Non-treated cells were used as a control. After 6 days of treatment, cell viability was measured by neutral red assay. Results are mean of three independent experiments (each made in quadruplicate).

MDA-MB-231 cells [1] = assay: Cell viability by neutral red assay, MDA-MB-231; details: for effect on cell viability: single agent, up to 6 days, Thalidomide 0.01-100 μM, CC-4047 and lenalidomide 0.001-10 μM, FIG. 6A
Protocol: (§5) Cells were seeded in 24 wells plates at a density of 10^4 cells per well and allowed to adhere for 24 hours. […] The drug was renewed every 2 days. Cell viability was then determined by neutral red assay, measuring absorbance at 550 nm.
as §1, §3, §4

MCF-7/VD^R cells = assay: Cell viability by neutral red assay, MCF-7/VD^R; details: Homo sapiens, MCF7, 144 h; ABT-263, 6 days, FIG. 16; read-out: IC50 (cell viability / killing)
Source text: (§6) Non-treated cells were used as a control.
as §6

MCF-12A cells [2] = assay: Cell growth by Sulphorhodamine B (SRB) assay, MCF-12A; details: single agent, up to 6 days, Thalidomide 0.01-100 μM, CC-4047 and lenalidomide 0.001-10 μM, FIG. 6B
Protocol: (§7) Cells were seeded in 24 wells plates at a density of 10^4 cells per well and allowed to adhere for 24 hours. […] Each treatment was carried out for up to 7 days, but renewed every 2 days. Cell growth was then determined by Sulphorhodamine B (SRB) assay, measuring absorbance at 550 nm.
(§8) After 6 days treatment, cells were seeded in 24 well plates at a density of 1×10^4 cells/well. After 24 h cells were treated with reagents or vehicle for up to six days. Cells were treated for up to 6 days with log doses of Thalidomide (0.1 μM up to 100 μM), pomalidomide and lenalidomide (0 μM up to 10 μM). At the end of each experiment, cells were fixed to the bottom of the well by addition of ice-cold 50% w/v trichloroacetic acid (TCA) to give a final concentration of 10% TCA. Plates were incubated at 4° C. for 30 minutes and then washed with distilled water. Plates were allowed to air-dry at room temperature before staining with 0.4% w/v SRB in 1% v/v acetic acid and incubated for 15 minutes on a shaker. The plates were then extensively washed with 1% acetic acid to remove unbound dye and were again allowed to air-dry at room temperature. Incorporated dye was solubilised with 200 μl […] Tris base. 100 μl aliquots were transferred to a 96 well plate and absorbance at 550 nm was determined

MDA-MB-231 cells [3] = assay: Cell growth by Sulphorhodamine B (SRB) assay, MDA-MB-231
Protocol: (§9) Cells were seeded in 24 wells plates at a density of 10^4 cells per well and allowed to adhere for 24 hours. To determine the combination effects of the drugs, cells were treated with 100 nM 1,25 D3 and 10 nM 1-oxo-2-(2,6-dioxopiperidin-3-yl)-4-aminoisoindoline or 1,3-dioxo-2-(2,6-dioxopiperidin-3-3-yl)-4-aminoisoindoline. Each treatment was carried out for up to 7 days, but renewed every 2 days. Cell growth was then determined by Sulphorhodamine B (SRB) assay, measuring absorbance at 550 nm.
as §9, with “per wekk” for “per well”, “and varying doses of” for “and 10 nM”, “or 1,3-dioxo-2-(2,6-dioxopiperidin-3-yl)-4-aminoisoindoline.” for “or 1,3-dioxo-2-(2,6-dioxopiperidin-3-3-yl)-4-aminoisoindoline.”
as §8

MCF-7 cells [4] = assay: Cell viability by neutral red assay, MCF-7; details: single agent, up to 6 days, Thalidomide 0.01-100 μM, CC-4047 and lenalidomide 0.001-10 μM, FIG. 6A
Protocol: as §5, §1

MCF-12A cells [5] = assay: Cell viability by neutral red assay, MCF-12A; details: single agent, up to 6 days, Thalidomide 0.01-100 μM, CC-4047 and lenalidomide 0.001-10 μM, FIG. 6A
Protocol: as §5, §1

MCF-7 cells [6] = assay: Cell growth by Sulphorhodamine B (SRB) assay, MCF-7; details: single agent, up to 6 days, Thalidomide 0.01-100 μM, CC-4047 and lenalidomide 0.001-10 μM, FIG. 6B
Protocol: as §7, §8

Row | SMILES | IC50 (HBL-100 cells) [nM] | IC50 (MDA-MB-231 cells [1]; Homo sapiens, MDA-MB-231, 144 h, ABT-263, 6 days, FIG. 16, read-out: IC50 (cell viability / killing)) [nM] | IC50 (MCF-7/VD^R cells) [nM] | effect on cell growth (MCF-12A cells [2]) | effect on cell viability (MDA-MB-231 cells [1]) | inhibition at 100 µM (MDA-MB-231 cells [3]; Homo sapiens, MDA-MB-231, 144 h, single agent, 100 μM Thalidomide (highest dose), up to 6 days) [%] | effect on cell viability (MCF-7 cells [4]) | effect on cell viability (MCF-12A cells [5]) | effect on cell growth (MCF-7 cells [6]) | minimal concentration giving statistically significant inhibition of growth (MDA-MB-231 cells [3]; in the presence of 100 nM 1,25 D3, up to 7 days, FIG. 3) [µM] | effect on cell growth (MDA-MB-231 cells [3]; single agent, 0.001-10 μM, up to 6 days)
1 | CC1(C)CCC(c2ccc(Cl)cc2)=C(CN2CCN(c3ccc(C(=O)NS(=O)(=O)c4ccc(N[C@H](CCN5CCOCC5)CSc5ccccc5)c(S(=O)(=O)C(F)(F)F)c4)cc3)CC2)C1 [ABT-263] | 1000 | 1000 | 1000 | – | – | – | – | – | – | – | –
2 | O=C1CCC(N2C(=O)c3ccccc3C2=O)C(=O)N1 (stereo not shown) [Thalidomide] | – | – | – | do not Affect | do not Affect | 20 | do not Affect | do not Affect | do not Affect | – | –
3 | Nc1cccc2c1C(=O)N(C1CCC(=O)NC1=O)C2=O (stereo not shown) [Pomalidomide, 1,3-dioxo-2-(2,6-dioxopiperidin-3-yl)-4-aminoisoindoline] | – | – | – | do not Affect | do not Affect | – | do not Affect | do not Affect | do not Affect | 0.1 | no effects
